Experimental data from US20070060621A1, “Methods and compositions for the administration of prodrugs of proton pump inhibitors” (priority 2004, published 2007).

How the values were obtained:
Assay type in all cases: physicochemical
[1] = Hygroscopicity of compound 1 on storage
Experimental: The physicochemical properties of compound 1 were analyzed.

[2] = Stability profile at 25° C. in buffered aqueous solutions
Excerpt: The base-catalyzed degradation is unexpected because the commercial proton pump inhibitors are stabilized in aqueous solutions by adjusting the solution to high pH.

[3] = Stability of compound 1 at 0.02 mg/mL at 25° C. in water, NaCl salt and phosphate buffer; details: for % Remaining: 25° C., 0.02 mg/mL; for Half Life (t½) / Rate Constant (k) / Shelf life (t90%): first order decay from 3-29 days
Experimental: FIG. 1 is a plot of the % of the original concentration of compound remaining over time. The original concentration of compound 1 was 0.02 mg/mL, and stability was assessed at 25° C. in 1) water, 2) NaCl salt (μ=0.15), 3) NaCl salt (μ=0.5), 4) phosphate buffer (pH 7.0, μ=0.15), and 5) phosphate buffer (pH 7.0, μ=0.5).
FIG. 2 is a log plot of the data of FIG. 1.
The stability of compound 1 at a concentration of 0.02 mg/mL in water at 25° C. was assessed in 1) water, 2) NaCl salt (μ=0.15), 3) NaCl salt (μ=0.5), 4) phosphate buffer (pH 7.0, μ=0.15), and 5) phosphate buffer (pH 7.0, μ=0.5). For the buffer solutions, the ionic strength (μ) was adjusted using sodium chloride, and the buffer concentration of the two solutions was equal (0.1 M). The amount of remaining compound 1 is presented as the % of the original concentration of 0.02 mg/mL for each sample in Table 3a and in FIG. 1.

[4] = pH 3, Citric Acid (0.1 M)/Na2HPO4 (0.2 M)
[5] = pH 5, Citric Acid (0.1 M)/Na2HPO4 (0.2 M)
[6] = pH 7, sodium phosphate (0.1-0.2 M)
[7] = pH 7.4, sodium phosphate (0.1-0.2 M)
[8] = pH 9, sodium phosphate (0.1-0.2 M)
[9] = pH 10, sodium phosphate (0.1-0.2 M)
[10] = Na phosphate buffer, u = 0.15, pH 7.0, 25° C.
[11] = Na phosphate buffer, u = 0.5, pH 7.0, 25° C.

For `COc1ccc2c(c1)nc([S+]([O-])Cc1ncc(C)c(OC)c1C)n2S(=O)(=O)c1ccc(OCC(=O)O)cc1` (centres unmarked) [Compound 1], the hygroscopicity ([1]; 14 days of storage at 25° C. at 75% relative humidity) was “hygroscopic”, the weight gain ([1]; after 14 days of storage at 25° C. at 75% relative humidity) was 9% and the “Degradation Rate Constant (k)” value ([2]; No buffer) was 0.0002 h⁻¹. The “Half-life (t1/2)” value ([2]; No buffer) was 119.32 days, the “Shelf life (t90%)” value ([2]; No buffer) was 435.4 h and the “Degradation Rate Constant (k)” value ([2]; pH 1, 0.1 M HCl) was 0.194 h⁻¹. For the same compound, the “Half-life (t1/2)” value ([2]; pH 1, 0.1 M HCl) was 0.15 days, the “Shelf life (t90%)” value ([2]; pH 1, 0.1 M HCl) was 0.5 h and the “Degradation Rate Constant (k)” value [2, 4] was 0.009 h⁻¹. For the same compound, the “Half-life (t1/2)” value [2, 4] was 3.25 days, the “Shelf life (t90%)” value [2, 4] was 11.9 h and the “Degradation Rate Constant (k)” value [2, 5] was 0.008 h⁻¹. For the same compound, the “Half-life (t1/2)” value [2, 5] was 3.72 days, the “Shelf life (t90%)” value [2, 5] was 13.6 h and the “Degradation Rate Constant (k)” value [2, 6] was 0.002 h⁻¹. For the same compound, the “Half-life (t1/2)” value [2, 6] was 11.95 days, the “Shelf life (t90%)” value [2, 6] was 43.6 h and the “Degradation Rate Constant (k)” value [2, 7] was 0.002 h⁻¹. For the same compound, the “Half-life (t1/2)” value [2, 7] was 12.13 days, the “Shelf life (t90%)” value [2, 7] was 44.3 h and the “Degradation Rate Constant (k)” value [2, 8] was 0.030 h⁻¹. For the same compound, the “Half-life (t1/2)” value [2, 8] was 0.958 days, the “Shelf life (t90%)” value [2, 8] was 3.5 h and the “Degradation Rate Constant (k)” value [2, 9] was 0.298 h⁻¹. The “Half-life (t1/2)” value [2, 9] was 0.0958 days, the “Shelf life (t90%)” value [2, 9] was 0.4 h and the “% Remaining” value ([3]; Day 1, NaCL, u = 0.15 (pH 6.6)) was 84.134%. The “% Remaining” value ([3]; Day 1, NaCL, u = 0.5 (pH 6.2)) was 87.598%, the “% Remaining” value ([3]; Day 1, Phosphate buffer, u = 0.15 (pH 7.0)) was 96.294% and the “% Remaining” value ([3]; Day 1, Phosphate buffer, u = 0.5 (pH 7.0)) was 96.709%. For the same compound, the “% Remaining” value ([3]; Day 1, Water (pH 7.2)) was 92.212%, the “% Remaining” value ([3]; Day 3, NaCL, u = 0.15 (pH 6.6)) was 76.960% and the “% Remaining” value ([3]; Day 3, NaCL, u = 0.5 (pH 6.2)) was 80.750%. For the same compound, the “% Remaining” value ([3]; Day 3, Phosphate buffer, u = 0.15 (pH 7.0)) was 90.597%, the “% Remaining” value ([3]; Day 3, Phosphate buffer, u = 0.5 (pH 7.0)) was 90.087% and the “% Remaining” value ([3]; Day 3, Water (pH 7.2)) was 86.085%. The “% Remaining” value ([3]; Day 4, NaCL, u = 0.15 (pH 6.6)) was 77.037%, the “% Remaining” value ([3]; Day 4, NaCL, u = 0.5 (pH 6.2)) was 78.348% and the “% Remaining” value ([3]; Day 4, Phosphate buffer, u = 0.15 (pH 7.0)) was 87.434%. For the same compound, the “% Remaining” value ([3]; Day 4, Phosphate buffer, u = 0.5 (pH 7.0)) was 85.994%, the “% Remaining” value ([3]; Day 4, Water (pH 7.2)) was 86.410% and the “% Remaining” value ([3]; Day 7, NaCL, u = 0.15 (pH 6.6)) was 75.398%. The “% Remaining” value ([3]; Day 7, NaCL, u = 0.5 (pH 6.2)) was 76.513%, the “% Remaining” value ([3]; Day 7, Phosphate buffer, u = 0.15 (pH 7.0)) was 80.995% and the “% Remaining” value ([3]; Day 7, Phosphate buffer, u = 0.5 (pH 7.0)) was 76.165%. The “% Remaining” value ([3]; Day 7, Water (pH 7.2)) was 84.569%, the “% Remaining” value ([3]; Day 9, NaCL, u = 0.15 (pH 6.6)) was 71.861% and the “% Remaining” value ([3]; Day 9, NaCL, u = 0.5 (pH 6.2)) was 74.482%. For the same compound, the “% Remaining” value ([3]; Day 9, Phosphate buffer, u = 0.15 (pH 7.0)) was 76.176%, the “% Remaining” value ([3]; Day 9, Phosphate buffer, u = 0.5 (pH 7.0)) was 70.768% and the “% Remaining” value ([3]; Day 9, Water (pH 7.2)) was 84.452%. For the same compound, the “% Remaining” value ([3]; Day 11, NaCL, u = 0.15 (pH 6.6)) was 73.763%, the “% Remaining” value ([3]; Day 11, NaCL, u = 0.5 (pH 6.2)) was 74.312% and the “% Remaining” value ([3]; Day 11, Phosphate buffer, u = 0.15 (pH 7.0)) was 74.520%. The “% Remaining” value ([3]; Day 11, Phosphate buffer, u = 0.5 (pH 7.0)) was 67.826%, the “% Remaining” value ([3]; Day 11, Water (pH 7.2)) was 86.930% and the “% Remaining” value ([3]; Day 13, NaCL, u = 0.15 (pH 6.6)) was 72.390%. The “% Remaining” value ([3]; Day 13, NaCL, u = 0.5 (pH 6.2)) was 71.691%, the “% Remaining” value ([3]; Day 13, Phosphate buffer, u = 0.15 (pH 7.0)) was 68.020% and the “% Remaining” value ([3]; Day 13, Water (pH 7.2)) was 83.661%. The “% Remaining” value ([3]; Day 15, NaCL, u = 0.15 (pH 6.6)) was 67.858%, the “% Remaining” value ([3]; Day 15, NaCL, u = 0.5 (pH 6.2)) was 68.167% and the “% Remaining” value ([3]; Day 15, Phosphate buffer, u = 0.15 (pH 7.0)) was 62.389%. For the same compound, the “% Remaining” value ([3]; Day 15, Phosphate buffer, u = 0.5 (pH 7.0)) was 52.494%, the “% Remaining” value ([3]; Day 15, Water (pH 7.2)) was 80.913% and the “% Remaining” value ([3]; Day 20, NaCL, u = 0.15 (pH 6.6)) was 64.953%. The “% Remaining” value ([3]; Day 20, NaCL, u = 0.5 (pH 6.2)) was 65.173%, the “% Remaining” value ([3]; Day 20, Phosphate buffer, u = 0.15 (pH 7.0)) was 54.360% and the “% Remaining” value ([3]; Day 20, Phosphate buffer, u = 0.5 (pH 7.0)) was 44.057%. The “% Remaining” value ([3]; Day 20, Water (pH 7.2)) was 78.768%, the “% Remaining” value ([3]; Day 24, NaCL, u = 0.15 (pH 6.6)) was 64.848% and the “% Remaining” value ([3]; Day 24, NaCL, u = 0.5 (pH 6.2)) was 65.753%. The “% Remaining” value ([3]; Day 24, Phosphate buffer, u = 0.15 (pH 7.0)) was 50.246%, the “% Remaining” value ([3]; Day 24, Phosphate buffer, u = 0.5 (pH 7.0)) was 39.181% and the “% Remaining” value ([3]; Day 24, Water (pH 7.2)) was 79.915%. For the same compound, the “% Remaining” value ([3]; Day 29, NaCL, u = 0.15 (pH 6.6)) was 62.731%, the “% Remaining” value ([3]; Day 29, NaCL, u = 0.5 (pH 6.2)) was 62.867% and the “% Remaining” value ([3]; Day 29, Phosphate buffer, u = 0.15 (pH 7.0)) was 43.321%. The “% Remaining” value ([3]; Day 29, Phosphate buffer, u = 0.5 (pH 7.0)) was 32.626%, the “% Remaining” value ([3]; Day 29, Water (pH 7.2)) was 78.412% and the “Half Life (t½)” value [3, 10] was 24.063 days. The “Rate Constant (k)” value [3, 10] was 0.0288 day⁻¹, the “Shelf life (t90%)” value [3, 10] was 3.658 days and the “Half Life (t½)” value [3, 11] was 17.589 days. For the same compound, the “Rate Constant (k)” value [3, 11] was 0.0394 day⁻¹, the “Shelf life (t90%)” value [3, 11] was 2.674 days and the “Half Life (t½)” value ([3]; NaCl, u = 0.15, pH 6.6, 25° C.) was 80.581 days. For the same compound, the “Rate Constant (k)” value ([3]; NaCl, u = 0.15, pH 6.6, 25° C.) was 0.0086 day⁻¹, the “Shelf life (t90%)” value ([3]; NaCl, u = 0.15, pH 6.6, 25° C.) was 12.251 days and the “Half Life (t½)” value ([3]; NaCl, u = 0.5, pH 6.6, 25° C.) was 75.326 days. For the same compound, the “Rate Constant (k)” value ([3]; NaCl, u = 0.5, pH 6.6, 25° C.) was 0.0092 day⁻¹, the “Shelf life (t90%)” value ([3]; NaCl, u = 0.5, pH 6.6, 25° C.) was 11.452 days and the “Half Life (t½)” value ([3]; water, pH 7.2, 25° C.) was 161.163 days. For the same compound, the “Rate Constant (k)” value ([3]; water, pH 7.2, 25° C.) was 0.0043 day⁻¹ and the “Shelf life (t90%)” value ([3]; water, pH 7.2, 25° C.) was 24.502 days.
